Experimental data as given in PMC10497752, “Heparins are potent inhibitors of ectonucleotide pyrophosphatase/phospho-diesterase-1 (NPP1) – a promising target for the immunotherapy of cancer” (Frontiers in Immunology, 2023).

Assays:
[1] = test system: U87 human glioblastoma cells; assay: U87 cell-based assay, extracellular adenosine formation from ATP (CE-UV); details: U-87 MG, 300 µM ATP, 3 h, DP and EHNA, 10 µg/mL (~ 6 µM)
Experimental: U87 human glioblastoma cells were grown in cell culture flasks until reaching a fully covered confluent cell layer. Cells were cultivated at 37°C and 5% CO2 in DMEM with additions of 10% FCS, 1% penicillin/streptomycin and 1% L-glutamine. The cells were rinsed with phosphate-buffered saline (PBS) and detached with EDTA. Thereafter, they were counted by a Cell Counter CASY® 1 Model TT (Schärfe System GmbH, Reutlingen, Germany) to retrieve the number of viable cells, and washed three times with PBS before they were resuspended in Krebs-HEPES buffer at a concentration of 10^6 cells/mL ([37]). Then, 1 mL of cell suspension was transferred into a 24-well plate. The cells were pretreated with the nucleoside transport inhibitor dipyridamole (20 µM) for 30 min ([38]). Adenosine deaminase (ADA) activity was inhibited by the addition of 1 µM of the inhibitor EHNA (erythro-9-amino-β-hexyl-α-methyl-9H-purine-9-ethanol hydrochloride) ([39]). Heparins, their non-anticoagulative analogs, and the known ectonucleotidase inhibitor PSB-POM-141 ([20]) were added. The samples were incubated with 300 µM of ATP for 3 h at 37°C and 5% CO2. […]
The percentage of inhibition of adenosine format ion in U87 cell supernatants by heparin derivatives was calculated from the conversion rate as follows: […]

human NPP4 = biological target: T1, human NPP4 (Homo sapiens, UniProt Q9Y6X5); assay: NPP4 luminescence-based assay, Ap4A as substrate; type: biochemical; details: 20 µg/mL (12 µM)
T1 construct: as a substrate and human soluble NPP4; made in house
T1 sequence (Q9Y6X5 16-407 limits assumed): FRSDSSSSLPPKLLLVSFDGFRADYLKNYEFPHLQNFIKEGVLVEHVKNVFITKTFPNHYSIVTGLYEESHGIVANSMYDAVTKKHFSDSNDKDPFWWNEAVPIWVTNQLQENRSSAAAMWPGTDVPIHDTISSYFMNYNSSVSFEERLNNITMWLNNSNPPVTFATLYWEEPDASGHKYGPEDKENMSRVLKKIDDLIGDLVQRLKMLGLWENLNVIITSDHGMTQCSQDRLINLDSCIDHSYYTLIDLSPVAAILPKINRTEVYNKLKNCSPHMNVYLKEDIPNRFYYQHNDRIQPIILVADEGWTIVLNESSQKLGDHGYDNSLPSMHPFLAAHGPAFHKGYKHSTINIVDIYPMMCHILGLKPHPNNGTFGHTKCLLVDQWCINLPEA
Experimental: Selectivity studies on NPP4 were performed using a published luminescence-based assay versus 20 μM of diadenosine tetraphosphate (Ap4A) as a substrate and human soluble NPP4 ([24]). The assay buffer consisted of 10 mM HEPES, 1 mM MgCl2, and 2 mM CaCl2 (pH 8.00). The enzyme reaction was started by adding 0.14 μg of purified human NPP4 to the reaction mixture, which was incubated at 37°C for 90 min. The released product ATP was quantified using the luciferin-luciferase reaction. The firefly luciferase reacts with D-luciferin in the presence of the formed ATP and Mg^2+. The resulting luminescence is a measure of the enzymatic activity, and the luminescence was read at 560 nm using a microplate reader (BMG PheraStar). Three independent experiments were performed, each in duplicate measurements; positive and negative controls were included.

Q: What does the source list for `CO[C@H]1O[C@H](COS(=O)(=O)O)[C@@H](O[C@@H]2O[C@@H](C(=O)O)[C@@H](O[C@H]3O[C@H](COS(=O)(=O)O)[C@@H](O[C@@H]4O[C@H](C(=O)O)[C@@H](O[C@H]5O[C@H](COS(=O)(=O)O)[C@@H](O)[C@H](O)[C@H]5NS(=O)(=O)O)[C@H](O)[C@H]4O)[C@H](OS(=O)(=O)O)[C@H]3NS(=O)(=O)O)[C@H](O)[C@H]2OS(=O)(=O)O)[C@H](O)[C@H]1NS(=O)(=O)O` [Compound 6, Fondaparinux]?
A: inhibition at 10 µg/mL [1]: 60%; NPP4 inhibition, selectivity study (human NPP4): no effect
